Reference: paper PMC8037310, “Thrombin-Derived Peptides Potentiate the Activity of Gram-Positive-Specific Antibiotics against Gram-Negative Bacteria” (Molecules, 2021)
Peptide text beside a SMILES is read from it.

Columns and labels:
E. coli BW25113 [1] = test: microbe, parasite or virus in culture; type: cell-based, Escherichia coli
A. baumannii ATCC17978 = test: microbe, parasite or virus in culture; type: cell-based, Acinetobacter baumannii
Protocol: (§1) All peptides were screened for antimicrobial activity against E. coli BW25113, E. coli ATCC25922, and E. coli W3110. A select group of the peptides was further tested against E. coli mcr-1, E. coli EQASmcr-1 (EQAS 2016 412016126), E. coli EQASmcr-2 (EQAS 2016 KP37), E. coli EQASmcr-3 (EQAS 2017 2013-SQ352), K. pneumoniae ATCC13883, P. aeruginosa ATCC27853, and A. baumannii ATCC17978. The antimicrobial assay was performed according to CLSI guidelines. Bacteria were plated out directly from their glycerol stocks on blood agar plates, incubated overnight at 37 °C, and then kept in the fridge. The blood agar plates were only used for 2 weeks and then replaced.
(§2) One colony from a blood agar plates was inoculated in Lysogeny Broth (LB) at 37 °C until a 0.5 optical density at 600 nm (OD600) was reached (compared to the sterility control of LB). The bacterial suspension was diluted in fresh LB to 2.0 × 10^6 CFU/mL. The serial dilutions were prepared in polypropylene microtiter plates: a stock of the test compounds was prepared with a 2x final concentration in LB. Moreover, 100 µL of the stock was added to the wells of the top row of which 50 µL was used for the serial dilution. The bottom row of each plate was used as the positive (50 µL of LB) and negative controls (100 µL of LB) (6 wells each). Furthermore, 50 µL of the 2.0 × 10^6 CFU/mL bacterial stock was added to each well except for the negative controls, adding up to a total volume of 100 µL per well. The plates were sealed with a breathable seal and incubated for 20 h at 37 °C and 600 rpm.
(§3) Two 96-well plates were required per compound. A serial dilution of the compound was performed on two plates from row A–G using with LB as medium. Row H was filled with 25 µL medium. On a separate plate a negative control (8 wells, 100 μL medium) was prepared. For all concentrations of antibiotic a specific stock was prepared. 25 µL medium was added to the 0 µg/mL antibiotic columns (plate I, column 1–3). Of each antibiotic stock 25 µL was added to three columns to obtain triplicates for every condition. Both plates contained 50 µL in each well to which 50 µL bacterial stock was added (see the protocol of the MIC assays) and the plates were sealed. After incubation for 20 h at 37 °C while shaking, the breathable seals were removed and the density of the bacterial suspensions measured at 600 nm (OD600) using a Tecan Spark plate reader. The OD600 values were transformed to a 2D gradient with the negative control as minimum and the positive control (wells G1, G2, and G3) as maximum in excel. The FICi was calculated using Equation (1) with a FICi ≤ 0.5 indicating synergy. FICi = (MSCa/MICa) + (MSCb/MICb),(1)
(§4) Calculation of the FICi: MSCa = concentration of the […] in combination with the antibiotic that results in the lowest FICi. MICa = MIC of the antibiotic without synergist (row G). MSCb = concentration of the synergist in combination with the antibiotic that results in the lowest FICi. MICb = MIC of the synergist itself (Column 1–3, plate I).

[2] = system: defibrinated sheep blood (red blood cells); test: Hemolysis assay; type: cell-based; conditions: 200 µg/mL compound, 20 h incubation at 37 °C with defibrinated sheep blood, PBS 0.002% Tween20, absorbance 415 nm, relative to 0.1% Triton X-100; n=3 technical replicates
Outline: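 % hemolysis is supernatant absorbance at 415 nm, minus the buffer-only background, relative to 0.1% Triton X-100 lysis. Compound dilutions (200–1.56 µg/mL before adding cells) were incubated with an equal volume of red cells for 20 h at 37 °C and 500 rpm. Cells were washed and normalized in PBS/0.002% Tween20 to about 2.5 A415 at full lysis.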

E. coli W3110 = type: cell-based, Escherichia coli
[3] = system: E. coli EQASmcr-1 (EQAS 2016 412016126); type: cell-based, Escherichia coli
E. coli mcr-1 = type: cell-based, Escherichia coli; conditions: E. coli mcr-1
Outline: (§5)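 Checkerboard of peptide serial dilutions against rifampicin concentrations in triplicate, in LB with 1.0 × 10^6 CFU/mL final inoculum after mixing the 2.0 × 10^6 CFU/mL stock 1:1, 20 h at 37 °C shaking. OD600 read; FICi = MSCa/MICa + MSCb/MICb, ≤0.5 taken as synergy.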

E. coli ATCC25922 = type: cell-based, Escherichia coli
Outline: as §5

E. coli BW25113 [4] = test: microbe, parasite or virus in culture; type: cell-based, Escherichia coli; remark: listed apart in the source
Protocol: as §1, §2, §3, §4

P. aeruginosa ATCC27853 = test: Checkerboard assay with rifampicin; type: cell-based, Pseudomonas aeruginosa; conditions: P. aeruginosa ATCC27853
Protocol: as §1, §2, §3, §4

E. coli BW25113 [5] = test: Checkerboard assay with erythromycin; type: cell-based, Escherichia coli
[6] = peptide concentration in the combination with rifampicin giving the lowest FICi
[7] = rifampicin concentration in the combination giving the lowest FICi

CC[C@H](C)[C@H](NC(=O)[C@H](Cc1c[nH]c2ccccc12)NC(=O)[C@H](CCCCN)NC(=O)[C@H](CCCCN)NC(=O)[C@H](CC(C)C)NC(=O)[C@H](CCCNC(=N)N)NC(=O)[C@H](Cc1ccccc1)NC(=O)[C@@H](N)C(C)C)C(=O)N[C@@H](CCC(N)=O)C(=O)N[C@@H](CCCCN)C(=O)N[C@H](C(=O)N[C@@H](C)C(N)=O)C(C)C [peptide 19] (H-VFRLKKWIQKVA-NH2)
FICi (E. coli BW25113 [1]; BW25113, 20 h): 0.0390 | MSCnovo (E. coli BW25113 [1]; novobiocin concentration in the combination giving the lowest FICi, E. coli BW25113): 3.125 µg/mL | MICpeptide (E. coli BW25113 [1]; synergist alone, E. coli BW25113, from checkerboard with novobiocin): 200 µg/mL | MSCpeptide (E. coli BW25113 [1]; synergist concentration in the combination with novobiocin giving the lowest FICi, E. coli BW25113): 6.25 µg/mL | FICi (A. baumannii ATCC17978; ATCC17978, 20 h): 0.0938 | MICpeptide (A. baumannii ATCC17978; peptide alone, A. baumannii ATCC17978): 100 µg/mL | MSCpeptide (A. baumannii ATCC17978; peptide concentration in the combination with rifampicin giving the lowest FICi, A. baumannii ATCC17978): 6.25 µg/mL | MSCrif (A. baumannii ATCC17978; rifampicin concentration in the combination giving the lowest FICi, A. baumannii ATCC17978): 0.063 µg/mL | Hemolysis [2]: 1.0% | FICi (E. coli W3110; W3110, 20 h): 0.0782 | MICpeptide (E. coli W3110; peptide alone, E. coli W3110): 100 µg/mL | MSCpeptide (E. coli W3110; peptide concentration in the combination with rifampicin giving the lowest FICi, E. coli W3110): 3.125 µg/mL | MSCrif (E. coli W3110; rifampicin concentration in the combination giving the lowest FICi, E. coli W3110): 0.5 µg/mL | FICi ([3]; EQASmcr-1 (EQAS 2016 412016126, 20 h)): 0.0938 | MICpeptide ([3]; peptide alone, E. coli EQASmcr-1): > 200 µg/mL | MSCpeptide ([3]; peptide concentration in the combination with rifampicin giving the lowest FICi, E. coli EQASmcr-1): 12.5 µg/mL | MSCrif ([3]; rifampicin concentration in the combination giving the lowest FICi, E. coli EQASmcr-1): 0.5 µg/mL | MICpeptide (E. coli mcr-1; peptide alone): > 200 µg/mL | MSCpeptide (E. coli mcr-1; [6]): 25 µg/mL | MSCrif (E. coli mcr-1; [7]): 0.75 µg/mL | FICi (E. coli ATCC25922; ATCC25922, 20 h): 0.0313 | MICpeptide (E. coli ATCC25922; peptide alone, E. coli ATCC25922): > 200 µg/mL | MSCpeptide (E. coli ATCC25922; peptide concentration in the combination with rifampicin giving the lowest FICi, E. coli ATCC25922): 6.25 µg/mL | MSCrif (E. coli ATCC25922; rifampicin concentration in the combination giving the lowest FICi, E. coli ATCC25922): 0.063 µg/mL | MICpeptide (E. coli BW25113 [4]; synergist alone, E. coli BW25113, from checkerboard with vancomycin): 200 µg/mL | MSCpeptide (E. coli BW25113 [4]; synergist concentration in the combination with vancomycin giving the lowest FICi, E. coli BW25113): 12.5 µg/mL | MSCvanco (E. coli BW25113 [4]; vancomycin concentration in the combination giving the lowest FICi, E. coli BW25113): 6.25 µg/mL | MICpeptide (P. aeruginosa ATCC27853; peptide alone): 100 µg/mL | MSCpeptide (P. aeruginosa ATCC27853; [6]): 25 µg/mL | MSCrif (P. aeruginosa ATCC27853; [7]): 0.25 µg/mL | MSCery (E. coli BW25113 [5]; erythromycin concentration in the combination with the synergist giving the lowest FICi, E. coli BW25113): 12.5 µg/mL | MIC of the peptide (MICpep) (E. coli BW25113 [5]; synergist alone, E. coli BW25113, LB, 20 h 37 °C, from checkerboard with erythromycin): 100 µg/mL | MSCpeptide, minimum synergistic concentration (E. coli BW25113 [5]; synergist concentration in the combination with erythromycin giving the lowest FICi, E. coli BW25113, LB, 20 h 37 °C, OD600): 3.125 µg/mL
